Patent US20230096028A1, “BICYCLIC HETEROCYCLYL COMPOUNDS AND USES THEREOF” (Revolution Medicines, Inc., priority 2019, published 2023)

Columns and labels:
[1] = system: PC-9 cells (EGFR Ex19Del); experiment: Potency Assay: pERK (SOS1 pERK IC50 Assay, AlphaLISA SureFire Ultra p-ERK1/2); type: cell-based; conditions: Homo sapiens; PC-9 cells (EGFR Ex19Del), 1 hour incubation, AlphaLISA p-ERK1/2; read-out: SOS1 pERK IC50
Outline: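 PC-9 (EGFR Ex19Del) cells plated overnight, then treated 1 h at 37° C. with 10-point 3-fold dilutions (top 10 μM final) in duplicate. Lysate pERK1/2 measured by AlphaLISA SureFire Ultra; IC50 from 4-parameter sigmoidal fit.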

[2] = molecular target: T1, SOS1 catalytic domain (residues 564-1049) (Homo sapiens, UniProt Q07889); experiment: Potency Assay: binding affinity to SOS1 using Surface Plasmon Resonance (SPR); design: SOS1 catalytic domain (residues 564-1049) immobilized on a sensor chip; conditions: immobilized SOS1 catalytic domain (residues 564-1049), read-out: SOS1 SPR Equilibrium Kd
T1 sequence (Q07889 564-1049): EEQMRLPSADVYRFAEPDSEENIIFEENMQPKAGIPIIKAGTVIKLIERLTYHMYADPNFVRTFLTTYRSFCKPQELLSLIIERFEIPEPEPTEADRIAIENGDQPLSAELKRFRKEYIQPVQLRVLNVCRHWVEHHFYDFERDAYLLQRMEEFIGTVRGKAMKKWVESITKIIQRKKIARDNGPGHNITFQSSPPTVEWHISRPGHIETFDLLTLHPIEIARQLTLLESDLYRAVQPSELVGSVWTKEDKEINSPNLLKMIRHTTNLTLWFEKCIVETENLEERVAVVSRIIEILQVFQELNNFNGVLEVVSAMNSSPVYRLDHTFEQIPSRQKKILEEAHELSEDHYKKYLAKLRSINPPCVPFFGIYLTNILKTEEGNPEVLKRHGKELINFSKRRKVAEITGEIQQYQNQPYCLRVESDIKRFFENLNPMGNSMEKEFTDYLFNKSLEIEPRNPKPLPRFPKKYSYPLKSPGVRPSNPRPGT
Protocol: Data was reported as equilibrium dissociation constant (Kd) values.
Using a GE Biacore 8K SPR instrument, avi-tagged SOS1 catalytic domain protein was immobilized to a level of approximately 6000 response units (RU) on a streptavidin-coated SPR sensor chip in assay buffer containing 0.01 M HEPES, 0.15 M NaCl and 0.05% v/v Surfactant P20. […] For each test compound, a separate 0 μM sample was generated for use during subsequent double reference subtraction. Serially for each test compound, individual dilution samples were flowed over the immobilized SOS1 protein at a flow rate of 50 μL/minute to monitor the association with SOS1. Dissociation of bound test compound from the SOS1 protein was immediately monitored by flowing assay buffer over the sensor surface and monitoring the decrease in binding signal back to the baseline level seen in the absence of compound. This was repeated for all compound dilutions in each series. The binding level response for each test compound concentration was noted immediately prior to the end of the association phase, and a secondary plot generated showing binding response level versus test compound concentration generated for each compound dilution series.

[3] = molecular target: T1, SOS1 catalytic domain (residues 564-1049); experiment: Mode of Action Assay: inhibition of SOS1 nucleotide exchange activity (SOS1 TR-FRET IC50 Assay)

SMILES	IC50 [1] [µM]	Kd [2] [µM]	IC50 [3] [µM]
C[C@@H](Nc1nc(Cl)nc2c1C[C@H](N1CCOCC1)CC2)c1cc(N)cc(C(F)(F)F)c1 (single isomer, unassigned) [Example 169]	< 1	< 0.4	< 1
C[C@@H](Nc1nc(Cl)nc2c1C[C@@H](N1CCOCC1)CC2)c1cc(N)cc(C(F)(F)F)c1 (single isomer, unassigned) [Example 170]	< 1	< 0.4	< 1
C[C@@H](Nc1nc(Cl)nc2c1CN(C1CCOCC1)CC2)c1cc(N)cc(C(F)(F)F)c1 [Example 22, N-[(1R)-1-[3-amino-5-(trifluoromethyl)phenyl]ethyl]-2-chloro-6-tetrahydropyran-4-yl-7,8-dihydro-5H-pyrido[4,3-d]pyrimidin-4-amine]	< 1	< 0.4	
C[C@@H](Nc1nc(Cl)nc2c1CN(S(=O)(=O)N1CCOCC1)C2)c1cc(N)cc(C(F)(F)F)c1 [Example 24, N-[(1R)-1-[3-amino-5-(trifluoromethyl)phenyl]ethyl]-2-chloro-6-morpholinosulfonyl-5,7-dihydropyrrolo[3,4-d]pyrimidin-4-amine]	< 1	< 0.4	< 1
C[C@@H](Nc1nc(Cl)nc2c1CN(S(=O)(=O)N1CCOCC1)CC2)c1cc(N)cc(C(F)(F)F)c1 [Example 29, N-[(1R)-1-[3-amino-5-(trifluoromethyl)phenyl]ethyl]-2-chloro-6-morpholinosulfonyl-7,8-dihydro-5H-pyrido[4,3-d]pyrimidin-4-amine]	< 1	< 0.4	< 1
C[C@@H](Nc1nc(Cl)nc2c1CN(C1CCOCC1)C2=O)c1cc(N)cc(C(F)(F)F)c1 [Example 30, 4-[[(1R)-1-[3-amino-5-(trifluoromethyl)phenyl]ethyl]amino]-2-chloro-6-tetrahydropyran-4-yl-5H-pyrrolo[3,4-d]pyrimidin-7-one]	> 1	< 0.4	< 1
CNCc1ccccc1-c1cnc(C(C)Nc2nc(Cl)nc3c2CN(C(=O)N2CCOCC2)C3)s1 (stereo not drawn) [Example 31]	> 1	< 0.4	> 1
CNCc1ccccc1-c1cccc(C(C)Nc2nc(Cl)nc3c2CN(C(=O)N2CCOCC2)C3)c1 (stereo not drawn) [Example 32, [2-chloro-4-[1-[3-[2-(methylaminomethyl)phenyl]phenyl]ethylamino]-5,7-dihydropyrrolo[3,4-d]pyrimidin-6-yl]-morpholino-methanone]	< 1	< 0.4	
C[C@@H](Nc1nnc(Cl)c2c1CN(C(=O)N1CCOCC1)C2)c1cc(N)cc(C(F)(F)F)c1 [Example 35, [1-[[(1R)-1-[3-amino-5-(trifluoromethyl)phenyl]ethyl]amino]-4-chloro-5,7-dihydropyrrolo[3,4-d]pyridazin-6-yl]-morpholino-methanone]	> 1	> 0.4	
Cc1nc2c(c(N[C@H](C)c3cc(N)cc(C(F)(F)F)c3)n1)CN(S(=O)(=O)c1ccc(N)nc1)C2 [Example 36, (R)—N-(1-(3-amino-5-(trifluoromethyl)phenyl)ethyl)-6-((6-aminopyridin-3-yl)sulfonyl)-2-methyl-6,7-dihydro-5H-pyrrolo[3,4-d]pyrimidin-4-amine]	> 1	> 0.4	> 1
Cc1nc2c(c(N[C@H](C)c3cc(N)cc(C(F)(F)F)c3)n1)CN(S(=O)(=O)N1CCOCC1)C2 [Example 37, (R)—N-(1-(3-amino-5-(trifluoromethyl)phenyl)ethyl)-2-methyl-6-(morpholinosulfonyl)-6,7-dihydro-5H-pyrrolo[3,4-d]pyrimidin-4-amine]	< 1	< 0.4	< 1
CNCc1ccccc1-c1ccc(C(C)Nc2nc(Cl)nc3c2CN(C(=O)N2CCOCC2)C3)s1 (stereo not drawn) [Example 39, [2-chloro-4-[1-[5-[2-(methylaminomethyl)phenyl]-2-thienyl]ethylamino]-5,7-dihydropyrrolo[3,4-d]pyrimidin-6-yl]-morpholino-methanone]	< 1	< 0.4	
CC(Nc1nc(Cl)nc2c1CN(C(=O)N1CCOCC1)C2)c1cc(O)cc(C(F)(F)F)c1 (stereo not drawn) [Example 40, [2-chloro-4-[1-[3-hydroxy-5-(trifluoromethyl)phenyl]ethylamino]-5,7-dihydropyrrolo[3,4-d]pyrimidin-6-yl]-morpholino-methanone]	> 1	> 0.4	> 1
CCc1cc(N)cc(C(C)Nc2nc(Cl)nc3c2CN(C(=O)N2CCOCC2)C3)c1 (stereo not drawn) [Example 41, [4-[1-(3-amino-5-ethyl-phenyl)ethylamino]-2-chloro-5,7-dihydropyrrolo[3,4-d]pyrimidin-6-yl]-morpholino-methanone]	< 1	< 0.4	
C[C@@H](Nc1nc(Cl)nc2c1CN(c1ncccc1N1CCOCC1)CC2)c1cc(N)cc(C(F)(F)F)c1 [Example 186, (R)—N-(1-(3-amino-5-(trifluoromethyl)phenyl)ethyl)-2-chloro-6-(3-morpholinopyridin-2-yl)-5,6,7,8-tetrahydropyrido[4,3-d]pyrimidin-4-amine]	> 1	> 0.4	
C[C@@H](Nc1nc(Cl)nc2c1CN(S(=O)(=O)C1CCNCC1)C2)c1cc(N)cc(C(F)(F)F)c1 [Example 187]	> 1	< 0.4	

Other lines, results leading:

IC50 [1] [µM]	Kd [2] [µM]	IC50 [3] [µM]	SMILES
> 1	> 0.4		COc1cncc(C(=O)N2CCc3nc(Cl)nc(N[C@H](C)c4cc(N)cc(C(F)(F)F)c4)c3C2)n1 [Example 237]
< 1	< 0.4		Cc1nc2c(c(N[C@H](C)c3cc(N)cc(C(F)(F)F)c3)n1)CN(C(=O)N1CCN(C)CC1)C2 [Example 351]
> 1	< 0.4		Cc1nc2c(c(N[C@H](C)c3cc(N)cc(C(F)(F)F)c3)n1)CN(C(=O)N1CC(O)C1)C2 [Example 352]
	< 0.4	< 1	C[C@@H](Nc1nc(Cl)nc2c1CN(C(=O)N1CCNc3ncncc31)C2)c1cccc(C(F)F)c1F [Example 427]
	< 0.4	< 1	C[C@@H](Nc1nc(Cl)nc2c1CN(C(=O)N1CCN(C)c3ncncc31)C2)c1cccc(C(F)F)c1F [Example 428]
	< 0.4	< 1	COC1CN([C@@H]2CCc3nc(Cl)nc(N[C@H](C)c4cc(N)cc(C(F)(F)F)c4)c3C2)C1 [Example 431]
	< 0.4	< 1	COC1CN([C@H]2CCc3nc(Cl)nc(N[C@H](C)c4cc(N)cc(C(F)(F)F)c4)c3C2)C1 [Example 432]
	< 0.4	< 1	CC(Nc1nc(Cl)nc2c1CN(C(=O)N1CCOCC1)C2)c1cc(N)cc(C(F)(F)F)c1F (stereo not drawn) [Example 461, (4-((1-(5-amino-2-fluoro-3-(trifluoromethyl)phenyl)ethyl)amino)-2-chloro-5,7-dihydro-6H-pyrrolo[3,4-d]pyrimidin-6-yl)(morpholino)methanone]
	< 0.4	< 1	COC1(C(=O)N2Cc3nc(C(F)(F)CO)nc(N[C@H](C)c4cccc(C(F)F)c4F)c3C2)CCOCC1 [Example 487, (R)-(2-(1,1-difluoro-2-hydroxyethyl)-4-((1-(3-(difluoromethyl)-2-fluorophenyl)ethyl)amino)-5,7-dihydro-6H-pyrrolo[3,4-d]pyrimidin-6-yl)(4-methoxytetrahydro-2H-pyran-4-yl)methanone]
	< 0.4	< 1	COC1(C(=O)N2Cc3nc(C(F)(F)CN)nc(N[C@H](C)c4cccc(C(F)F)c4F)c3C2)CCOCC1 [Example 488, 2-(2-amino-1,1-difluoroethyl)-N-[(1R)-1-[3-(difluoromethyl)-2-fluorophenyl]ethyl]-6-(4-methoxyoxane-4-carbonyl)-5H,6H,7H-pyrrolo[3,4-d]pyrimidin-4-amine]
	< 0.4	< 1	C[C@@H](Nc1nc(CF)nc2c1CN(C(=O)N1CCOCC1)C2)c1cccc(C(F)F)c1F [Example 540, N-[(1R)-1-[3-(difluoromethyl)-2-fluorophenyl]ethyl]-2-(fluoromethyl)-6-(morpholine-4-carbonyl)-5H,6H,7H-pyrrolo[3,4-d]pyrimidin-4-amine]
